Legend:
mice = test: Behavioral testing of mice (paw-licking time after intraplantar injection); type: in vivo, mouse
Method: The chosen mice were allowed to acclimate to the experimental environment for at least 2 h before testing. Intraplantar injection of 5% AITC and 30% malathion (10 μl) was achieved using separate injectors. Spontaneous pain evoked by the compounds was assessed by measuring the time (s) the mice spent on licking. For the HC030031 groups, 200 mg kg^−1 HC030031 was intragastrically administered, and then the test was conducted after 1 h. The testing phase was divided into two parts: 0–10 min and 11–60 min.

TRPC4 = target: T1, TRPC4 (Homo sapiens, UniProt Q9UBN4); test: Calcium fluorescence signal, HEK293 cells overexpressing TRPC4; type: cell-based; details: 10 μM
T1 construct: expressed in transfected cells; host or cells: HEK293
T1 sequence (Q9UBN4 1-977): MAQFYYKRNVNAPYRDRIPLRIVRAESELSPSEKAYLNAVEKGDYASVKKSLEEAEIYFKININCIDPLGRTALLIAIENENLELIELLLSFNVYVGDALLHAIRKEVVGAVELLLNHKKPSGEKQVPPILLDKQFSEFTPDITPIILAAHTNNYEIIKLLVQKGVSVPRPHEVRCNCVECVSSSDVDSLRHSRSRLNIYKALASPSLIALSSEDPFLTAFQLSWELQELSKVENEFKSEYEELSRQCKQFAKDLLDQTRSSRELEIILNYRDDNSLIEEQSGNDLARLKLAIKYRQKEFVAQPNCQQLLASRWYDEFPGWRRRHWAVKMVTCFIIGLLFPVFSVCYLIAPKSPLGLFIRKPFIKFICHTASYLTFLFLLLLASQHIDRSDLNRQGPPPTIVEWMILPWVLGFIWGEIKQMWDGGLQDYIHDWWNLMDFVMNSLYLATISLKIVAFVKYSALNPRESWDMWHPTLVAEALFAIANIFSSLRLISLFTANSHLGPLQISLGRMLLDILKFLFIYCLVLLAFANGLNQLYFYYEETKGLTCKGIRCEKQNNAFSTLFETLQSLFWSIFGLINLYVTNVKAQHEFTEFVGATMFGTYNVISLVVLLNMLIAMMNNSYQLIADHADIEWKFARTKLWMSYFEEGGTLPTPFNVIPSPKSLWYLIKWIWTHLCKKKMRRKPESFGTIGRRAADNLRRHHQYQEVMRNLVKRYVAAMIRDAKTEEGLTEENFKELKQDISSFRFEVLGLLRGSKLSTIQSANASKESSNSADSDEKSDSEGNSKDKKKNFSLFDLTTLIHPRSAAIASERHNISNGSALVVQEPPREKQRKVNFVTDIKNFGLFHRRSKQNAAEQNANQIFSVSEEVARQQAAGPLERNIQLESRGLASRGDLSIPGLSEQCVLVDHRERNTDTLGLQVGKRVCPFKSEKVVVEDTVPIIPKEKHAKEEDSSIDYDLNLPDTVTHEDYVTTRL
Method: (§1) Figure S3. Specificity of malathion for TRPA1 channels. (A-F) Time course of the fluorescence signal induced by malathion (Mala, 10 μM) and the indicated positive agonists (10 μM) in HEK293 cells overexpressing TRPV1 (A), TRPV3 (B), TRPV4 (C), TRPM8 (D), TRPC4 (E) and TRPC5 (F) channels. The fluorescence signals are scaled as F/F0. EC indicates external solution. […]
(§2) cells for each tested TRP channel. All bars are presented as the mean ± SEM. […]

mTRPA1 = mTRPA1 (Mus musculus, UniProt Q8BLA8); test: FDSS Ca2+-influx assay, HEK293 cells stably expressing mTRPA1; type: cell-based; set-up: expressed in transfected cells; details: HEK293 cells, change in [Ca2+]i; read-out: EC50, activation of mTRPA1
Method: Ca^2+-influx assays were carried out using HEK293 cells stably expressing mTRPA1 channels with an FDSS screening system (Hamamatsu, Japan). Before the start of the assay, HEK293-mTRPA1 cells were plated onto poly-D-Lysine (40 μg ml^−1) coated 96-well black clear bottom plate with the cell density of 300 000 cells per milliliter in DMEM supplemented with 10% (vol/vol) fetal bovine serum, 200 μg ml^−1 Hygromycin B, 15 μg ml^−1 Blasticidin S HCL and 0.3 μg ml^−1 doxycycline, which could induce the expression of mTRPA1. The 96-well plate was then put in sterile incubator overnight. The following day, Ca^2+ influx dye Fluo-4/AM stock was diluted to 2 μM with bath solution, and added (50 μl per well) in place of the culture medium. The plate was then incubated to load the Fluo-4/AM into cells for 60 min at 37 °C in dark environment. During the incubation, we prepared the compound plate (96-well) and the margin of plate was set as blank control due to the fringing effect. At the end of dye loading period, the remnant dye was removed using bath solution to wash the 96-well cell plate twice and then add 80 μl bath solution per well.

TRPV3 = target: T2, TRPV3 (Homo sapiens, UniProt Q8NET8); test: Calcium fluorescence signal, HEK293 cells overexpressing TRPV3; type: cell-based; details: 10 μM
T2 construct: expressed in transfected cells; host or cells: HEK293
T2 sequence (Q8NET8 1-790): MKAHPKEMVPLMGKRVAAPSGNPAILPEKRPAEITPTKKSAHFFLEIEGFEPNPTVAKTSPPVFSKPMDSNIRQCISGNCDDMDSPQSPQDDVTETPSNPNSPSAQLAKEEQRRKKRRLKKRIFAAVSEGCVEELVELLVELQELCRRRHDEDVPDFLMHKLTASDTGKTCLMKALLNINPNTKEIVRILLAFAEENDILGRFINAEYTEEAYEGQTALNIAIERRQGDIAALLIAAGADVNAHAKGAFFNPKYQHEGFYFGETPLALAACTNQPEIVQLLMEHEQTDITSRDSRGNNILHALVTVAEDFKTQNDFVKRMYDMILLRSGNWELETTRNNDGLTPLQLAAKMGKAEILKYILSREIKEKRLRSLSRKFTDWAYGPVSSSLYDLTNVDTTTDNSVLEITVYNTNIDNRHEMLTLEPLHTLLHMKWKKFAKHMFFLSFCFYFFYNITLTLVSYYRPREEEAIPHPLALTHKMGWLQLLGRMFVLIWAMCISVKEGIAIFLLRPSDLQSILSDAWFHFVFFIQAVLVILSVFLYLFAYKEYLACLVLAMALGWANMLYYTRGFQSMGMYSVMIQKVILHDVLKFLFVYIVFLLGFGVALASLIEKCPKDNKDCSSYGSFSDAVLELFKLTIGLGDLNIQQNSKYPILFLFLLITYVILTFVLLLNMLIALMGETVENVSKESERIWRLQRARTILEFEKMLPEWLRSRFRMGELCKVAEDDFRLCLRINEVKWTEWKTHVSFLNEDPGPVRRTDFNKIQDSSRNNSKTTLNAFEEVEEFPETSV
Method: as §1, §2

TRPM8 = target: T3, TRPM8 (Homo sapiens, UniProt Q7Z2W7); test: Calcium fluorescence signal, HEK293 cells overexpressing TRPM8; type: cell-based; details: 10 μM
T3 construct: expressed in transfected cells; host or cells: HEK293
Method: as §1, §2

[1] = HC030031 200 mg kg−1 per oral, 1 h before test

T3 sequence (Q7Z2W7 whole entry, species assumed): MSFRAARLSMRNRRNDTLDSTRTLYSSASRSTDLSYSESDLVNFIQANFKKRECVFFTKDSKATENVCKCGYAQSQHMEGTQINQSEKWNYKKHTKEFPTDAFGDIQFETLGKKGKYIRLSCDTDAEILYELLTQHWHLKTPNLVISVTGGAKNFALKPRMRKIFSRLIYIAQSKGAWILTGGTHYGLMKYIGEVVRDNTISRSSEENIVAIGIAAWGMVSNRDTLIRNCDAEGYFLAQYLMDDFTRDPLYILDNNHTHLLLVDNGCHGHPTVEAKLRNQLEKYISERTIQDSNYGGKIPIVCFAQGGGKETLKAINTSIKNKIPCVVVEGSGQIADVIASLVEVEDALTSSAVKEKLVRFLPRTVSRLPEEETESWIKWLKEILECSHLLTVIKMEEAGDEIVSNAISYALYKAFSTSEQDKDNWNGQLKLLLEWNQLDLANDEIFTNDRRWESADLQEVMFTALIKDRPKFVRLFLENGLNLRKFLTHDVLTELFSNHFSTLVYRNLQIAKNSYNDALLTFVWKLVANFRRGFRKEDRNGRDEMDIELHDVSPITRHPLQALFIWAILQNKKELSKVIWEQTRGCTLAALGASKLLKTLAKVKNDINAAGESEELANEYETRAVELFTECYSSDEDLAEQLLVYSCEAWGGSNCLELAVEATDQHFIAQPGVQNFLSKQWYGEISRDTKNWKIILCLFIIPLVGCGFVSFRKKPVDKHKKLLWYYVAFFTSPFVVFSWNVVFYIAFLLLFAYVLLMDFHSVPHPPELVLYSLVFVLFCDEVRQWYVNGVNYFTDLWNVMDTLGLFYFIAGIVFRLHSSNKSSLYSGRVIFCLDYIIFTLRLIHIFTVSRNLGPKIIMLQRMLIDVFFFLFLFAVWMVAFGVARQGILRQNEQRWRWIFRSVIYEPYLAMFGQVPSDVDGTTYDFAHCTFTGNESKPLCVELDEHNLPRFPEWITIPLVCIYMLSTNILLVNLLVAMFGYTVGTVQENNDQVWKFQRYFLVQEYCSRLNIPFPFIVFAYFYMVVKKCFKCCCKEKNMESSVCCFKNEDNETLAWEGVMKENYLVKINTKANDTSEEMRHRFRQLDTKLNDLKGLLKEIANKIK
Chain of mTRPA1 (Q8BLA8 whole entry): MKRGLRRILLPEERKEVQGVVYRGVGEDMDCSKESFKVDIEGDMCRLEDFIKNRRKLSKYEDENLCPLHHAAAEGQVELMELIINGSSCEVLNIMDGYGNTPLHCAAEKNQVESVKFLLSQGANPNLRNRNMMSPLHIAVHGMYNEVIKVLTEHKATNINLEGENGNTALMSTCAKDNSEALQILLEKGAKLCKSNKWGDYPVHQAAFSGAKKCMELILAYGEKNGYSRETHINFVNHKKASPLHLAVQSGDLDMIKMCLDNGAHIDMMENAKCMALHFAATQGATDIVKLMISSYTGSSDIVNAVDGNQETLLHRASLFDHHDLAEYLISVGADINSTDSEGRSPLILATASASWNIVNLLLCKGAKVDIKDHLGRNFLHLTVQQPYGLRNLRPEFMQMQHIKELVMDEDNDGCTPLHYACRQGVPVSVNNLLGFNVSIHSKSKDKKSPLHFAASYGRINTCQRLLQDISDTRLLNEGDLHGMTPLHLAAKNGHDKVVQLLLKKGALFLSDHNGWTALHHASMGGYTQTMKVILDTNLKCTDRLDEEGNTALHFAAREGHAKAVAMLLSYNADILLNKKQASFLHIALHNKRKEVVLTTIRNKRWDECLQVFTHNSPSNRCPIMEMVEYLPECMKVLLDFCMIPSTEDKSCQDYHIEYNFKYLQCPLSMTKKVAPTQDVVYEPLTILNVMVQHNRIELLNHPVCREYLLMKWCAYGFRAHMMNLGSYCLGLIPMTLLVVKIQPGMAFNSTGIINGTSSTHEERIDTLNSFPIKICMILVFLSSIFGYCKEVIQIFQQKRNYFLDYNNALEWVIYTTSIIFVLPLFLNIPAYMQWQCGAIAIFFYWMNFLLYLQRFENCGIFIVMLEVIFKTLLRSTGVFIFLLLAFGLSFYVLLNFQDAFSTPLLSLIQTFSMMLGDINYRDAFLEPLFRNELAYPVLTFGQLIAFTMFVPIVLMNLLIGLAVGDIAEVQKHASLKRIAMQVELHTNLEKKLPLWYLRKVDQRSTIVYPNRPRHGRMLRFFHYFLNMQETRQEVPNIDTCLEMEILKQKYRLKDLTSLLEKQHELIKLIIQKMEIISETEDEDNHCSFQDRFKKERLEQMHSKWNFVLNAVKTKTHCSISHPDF

SMILES	effect on AITC-evoked nocifensive behavior (mice; [1])	effect on malathion-evoked nociception-like behavior (mice; [1])	activation of TRPC4 (TRPC4)	nociception-like behavior in Trpa1−/− mice (mice; Trpa1−/− mice, 30% malathion intraplantar)	nocifensive behavior (paw-licking) after plantar injection (mice; WT mice, AITC 10 μl 5%, malathion 10 μl 30%, intraplantar)	EC50 (mTRPA1) [µM]	activation of TRPV3 (TRPV3)	activation of TRPM8 (TRPM8)
CC(C)c1ccc(NC(=O)Cn2cnc3c2c(=O)n(C)c(=O)n3C)cc1 [HC030031]	suppressed	blocked						
CCOC(=O)CC(SP(=S)(OC)OC)C(=O)OCC (stereo not drawn) [malathion, S-[1,2-bis (ethoxycarbonyl)ethyl] O, O-dimethyl phosphorodithioate]			could not activate	not observed	nociception-like behavior	14.2 ± 1.02	could not activate	could not activate
